Reference: patent publication US7271148B2, “Inhibition of cellular proteases” (The Board of Regents of The University of Texas System, priority 1999, dated 2007)

Biological target: T1, μ-calpain (Homo sapiens, UniProt P07384)
T1 construct: purchased Calbiochem (San Diego, Calif.)
T1 sequence (P07384 1-714): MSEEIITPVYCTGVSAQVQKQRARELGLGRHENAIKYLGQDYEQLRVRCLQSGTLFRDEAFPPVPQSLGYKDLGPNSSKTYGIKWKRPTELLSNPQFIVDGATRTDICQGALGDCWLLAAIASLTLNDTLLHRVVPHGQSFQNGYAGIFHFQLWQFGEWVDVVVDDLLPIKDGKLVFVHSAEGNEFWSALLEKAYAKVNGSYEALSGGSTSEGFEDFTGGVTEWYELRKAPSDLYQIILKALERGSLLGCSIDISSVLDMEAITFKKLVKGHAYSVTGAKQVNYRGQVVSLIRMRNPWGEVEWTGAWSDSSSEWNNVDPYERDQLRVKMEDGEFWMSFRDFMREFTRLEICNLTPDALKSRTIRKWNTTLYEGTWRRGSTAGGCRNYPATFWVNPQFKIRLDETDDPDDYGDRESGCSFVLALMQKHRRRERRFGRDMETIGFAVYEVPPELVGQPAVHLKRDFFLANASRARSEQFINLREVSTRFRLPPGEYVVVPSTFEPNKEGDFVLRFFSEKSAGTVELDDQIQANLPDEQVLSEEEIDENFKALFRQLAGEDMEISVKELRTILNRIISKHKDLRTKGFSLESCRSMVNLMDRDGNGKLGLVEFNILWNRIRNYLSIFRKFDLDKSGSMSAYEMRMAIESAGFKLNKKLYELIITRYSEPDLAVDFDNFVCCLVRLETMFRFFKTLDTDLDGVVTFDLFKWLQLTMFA
T1 sequence (P04632 1-268 partner): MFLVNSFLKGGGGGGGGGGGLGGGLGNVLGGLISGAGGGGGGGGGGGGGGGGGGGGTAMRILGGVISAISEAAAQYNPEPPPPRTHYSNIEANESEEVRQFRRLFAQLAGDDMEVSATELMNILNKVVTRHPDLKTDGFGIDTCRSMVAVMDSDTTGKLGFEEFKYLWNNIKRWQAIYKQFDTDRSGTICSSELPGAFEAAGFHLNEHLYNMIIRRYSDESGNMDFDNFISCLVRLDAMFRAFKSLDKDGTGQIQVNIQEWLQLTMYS
Assay: Cleavage of purified recombinant p21cip1 by purified μ-calpain
Format: biochemical
Conditions: E64d 100 μM; 0.4 μg p21^cip1, 0.004 units μ-calpain, 30 min at 30° C.; Western blot (FIG. 19)
Protocol: Cleavage of p21^cip1 by calpain. Recombinant p21^cip1 was provided by Harper (37) or Ke (47), and was also prepared using the expression plasmid pET-p21 (37) according to the published methods (30). To evaluate the effect of calpains on p21^cip1, 400 ng of purified recombinant p21^cip1 was incubated with 0.004 units of either pure μ-calpain or m-calpain at 30° C. for 30 minutes in 40 μl of cleavage buffer, containing 25 mM Tris-HCl (pH 7.5), 100 mM NaCl, 3 mM DTT and 5 mM CaCl2 (44). EDTA was added to 10 mM to stop the reaction. An equal volume of 2×SDS gel-loading buffer (18) was mixed with the digestion mixture and the mixture was immediately boiled for 5 min. The digestion products were evaluated by Western blot analysis or SDS-PAGE and coomassie brilliant blue staining.
FIGS. 19 and 20. Cleavage of purified recombinant p21^cip1 by purified ubiquitous calpains. 19. p21^cip1 (0.4 μg) was incubated with μ-calpain (0.004 units) for 30 min at 30° C. in the presence or absence of E64d (100 μM) and the resulting products were analyzed by Western blot analysis, as described in Materials and Methods 20. p21^cip1 (4 μg) or casein (3 μg) was incubated with 0.04 units of μ-calpain or m-calpain for 30 min at 30° C. and the products of the digestion were examined by SDS-PAGE and coomassie brilliant blue staining. […]

Compound: CC(C)C[C@H](NC(=O)[C@H]1O[C@@H]1C(=O)O)C(=O)NCCCCN=C(N)N (relative stereo) [E64d, trans-epoxysuccinyl-L-leucylamido (4-guanidino)-butane]
- proteolysis of p21^cip1 by μ-calpain (in words): inhibited the proteolysis
